Assay results published in patent publication US12565504B2, “Spirocyclic O-glycoprotein-2-acetamido-2-deoxy-3-d-glucopyranosidase inhibitors” (BIOGEN MA INC., priority 2019, dated 2026).

Assays:
P-gp (MDR1) = assay: MDR1-MDCK Efflux Ratio Assay; assay type: in vitro ADME; conditions: dog, MDR1-MDCK cells, pH 7.4, read-out: MDR1-MDCK Efflux Ratio (B-A/A-B)
Procedure: MDR1-MDCK cell monolayers were grown to confluence on microporous polyester membranes in 96-well Corning insert plates. The permeability assay buffer was Hanks' Balanced Salt Solution containing 10 mM HEPES at pH of 7.4. Loperamide (1 μM) was used as a positive control P-gp substrate. Propranolol and Bestatin (1 μM) were used as high and low permeability comparators, respectively.
Test compounds or positive control P-gp substrate/permeability comprators were added to respective apical and basolateral chambers for bidirectional assessment of permeability. Receiver buffer (transport buffer supplemented with 1% bovine serum albumin) was added to respective receiver chambers. MDR1-MDCK cells were incubated with test compounds at 37° C. with 5% CO2 for 2 hr. Samples were collected from the donor chamber at both 0 and 120 minutes, and from the receiver chamber at 120 minutes. Test and control compound concentrations were determined using LC-MS/MS analysis. Each determination was performed in triplicate.

[1] = Rat Liver Microsome Stability Assay; conditions: rat liver microsomes 0.5 mg/mL, compound 1 μM; Qh 55 mL/minute/kg
Procedure: Aliquots (40 uL) at 0, 5, 10, 15, 25 and 40 minutes post NADPH addition (or compound addition for reactions in absence of NADPH) were transferred into individual 96-well plate wells containing 40 ng/ml of 8-cyclopently-1,3-dipropylxanthine (CPDPX, internal standard) in 160 uL acetonitrile:methanol (1:1 v/v).
The LC/MS/MS system consisted of an ultra high throughput RapidFire® 300 system (Agilent Technologies, Santa Clara, CA) coupled to a Triple Quad 5500 mass spectrometer (ABSciex, Foster City, CA). Sample load and wash were performed on a RapidFire® C4 cartridge using 0.1% formic acid in water as mobile phase A and sample elution using 0.1% formic acid in acetonitrile:methanol (1:1 v/v) as mobile phase B.
CLint, app (apparent intrinsic clearance) was calculated using the following equation for microsome stability.
[formula] • where “a” represents 45 grams of liver/kg of body weight for rat. • CLint,app (apparent intrinsic clearance) was calculated using the following equation for hepatocyte stability: • CLhep (hepatic clearance) was calculated using the following equation for microsomes
[formula] • using 55 mL/minute/kg as Qh (hepatic blood flow) for rat.

[2] = target: Recombinant full length human OGA enzyme (Homo sapiens (Human), UniProt O60502); assay: OGA Enzyme Inhibition Biochemical Assay; conditions: 1 nM OGA, 100 μM 4-MUGlcNAc, 90 minutes, pH 6.4
Sequence of Recombinant full length human OGA enzyme (O60502 whole entry): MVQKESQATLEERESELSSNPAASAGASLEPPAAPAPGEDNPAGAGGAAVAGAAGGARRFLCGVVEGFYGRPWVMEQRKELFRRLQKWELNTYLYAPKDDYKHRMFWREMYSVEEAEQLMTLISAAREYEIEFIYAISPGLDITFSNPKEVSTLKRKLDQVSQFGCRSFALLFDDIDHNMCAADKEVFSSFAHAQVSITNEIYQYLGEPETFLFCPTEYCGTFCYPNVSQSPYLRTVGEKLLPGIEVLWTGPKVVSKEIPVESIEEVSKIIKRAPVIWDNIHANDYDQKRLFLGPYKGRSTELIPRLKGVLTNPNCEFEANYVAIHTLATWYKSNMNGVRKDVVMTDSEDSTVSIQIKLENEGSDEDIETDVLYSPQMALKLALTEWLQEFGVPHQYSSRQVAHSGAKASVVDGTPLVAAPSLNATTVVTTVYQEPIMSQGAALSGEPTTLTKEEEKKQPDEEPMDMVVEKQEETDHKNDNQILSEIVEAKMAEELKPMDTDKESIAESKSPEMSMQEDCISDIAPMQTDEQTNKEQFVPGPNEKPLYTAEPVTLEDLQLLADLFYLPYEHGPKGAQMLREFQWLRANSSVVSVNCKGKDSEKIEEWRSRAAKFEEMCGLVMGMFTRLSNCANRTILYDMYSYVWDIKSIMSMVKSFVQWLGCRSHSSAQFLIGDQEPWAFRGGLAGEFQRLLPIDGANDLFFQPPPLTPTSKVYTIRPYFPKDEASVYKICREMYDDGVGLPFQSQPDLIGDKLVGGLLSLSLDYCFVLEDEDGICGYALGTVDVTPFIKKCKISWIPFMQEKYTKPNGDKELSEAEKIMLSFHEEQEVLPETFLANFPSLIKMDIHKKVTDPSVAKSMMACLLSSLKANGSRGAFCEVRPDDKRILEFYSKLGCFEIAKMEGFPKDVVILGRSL
Procedure: Recombinant full length human OGA enzyme was purchased from Origene. 4-MUGlcNAc substrate was purchased from Sigma. All other reagents were purchased from Sigma or Fisher. Assay buffer consists of the McIlvaine buffer system, pH 6.4 (0.2M Na2HPO4 mixed with 0.1M citric acid) and 0.01% BSA. […] Reactions were incubated for 90 minutes at room temperature and quenched with 40 μl of 3M glycine, pH 10 and read on a Perkin Elmer Envision plate reader (Ex: 355 nm/Em: 460 nm). Compounds were tested with a 10-point dose-response starting from 20 μM with a 4-fold dilution. Data was fit using GraphPad Prism using a 4-parameter fit with variable slope.

OGA (S400 O-GLCNAC) = OGA (S400 O-GLCNAC) (Homo sapiens (Human), UniProt O60502); assay: Cellular OGA-Tau MSD Assay; assay type: cell-based; conditions: HEK-293T cells transfected with OGT and Tau-V5; Tau-S400-GlcNAc MSD readout
Sequence of OGA (S400 O-GLCNAC) (O60502 whole entry): as above
Procedure: HEK-293T cells were transfected with OGT and Tau-V5 plasmids using Lipofectamine and grown overnight. Next day, the cells were collected and re-plated at 1×10^5 cells per well in 96 well plates. Cells were incubated for 4 hr at 37° C., before compounds were added at 1 uM, with 3-fold dilutions in a 10-point titration. Cell plates were incubated with compounds overnight at 37° C. The next day media was removed from wells by gentle aspiration and 120 ul of 1× Cell Lysis buffer mixed with protease and phosphatase cocktail added to each well. A freeze thaw was performed at −80° C., then mixed before transferring 50 μl to MSD plates coated with V5-tag antibody to capture Tau. MSD Plates were incubated overnight at 4° C., on a plate shaker. The following day, plates were washed and incubated with Tau-S400-GlcNAc antibody for 2 hr and then developed with rabbit Sulfo-tag antibody. Final read out was carried out on an MSD 600 reader. The data was analyzed using Graph Pad or Genedata, the data was normalized and % activity versus log of compound concentration was plotted. The ICso values were obtained from a 4 parameter fit.

Compound | efflux ratio at 2 hr (P-gp (MDR1)) | RLM % Qh (%) [1] [%] | IC50 [2] [nM] | IC50 (OGA (S400 O-GLCNAC)) [nM] | efflux ratio at 2 h (P-gp (MDR1))
CC(=O)Nc1nc(F)c(CN2CCCC3(COc4ccccc43)C2)s1 (stereo not drawn) [Example 54, N-(5-((2H-Spiro[benzofuran-3,3′-piperidin]-1′-yl)methyl)-4-fluorothiazol-2-yl)acetamide] | 0.8 | 94 | 1500 | > 1000 | –
CC(=O)Nc1nc(F)c(CN2CCCC3(C2)OCc2ccncc23)s1 (stereo not drawn) [Example 73, N-(5-((1H-Spiro[furo[3,4-c]pyridine-3,3′-piperidin]-1′-yl)methyl)-4-fluorothiazol-2-yl)acetamide] | 21.6 | 78 | 9.2 | 23.7 | –
CC(=O)Nc1ncc(CN2CCC3(C2)OCc2ccccc23)s1 (stereo not drawn) [Example 57, N-(5-((3H-Spiro[isobenzofuran-1,3′-pyrrolidin]-1′-yl)methyl)thiazol-2-yl)acetamide] | 2.4 | 88 | 170 | 818 | –
CC(=O)Nc1ncc(CN2C[C@@]3(Cc4cc(Cl)ncc4O3)C[C@@H]2C)s1 [Example 11, N-(5-(((2R,5′S)-5-Chloro-5′-methyl-3H-spiro[furo[2,3-c]pyridine-2,3′-pyrrolidin]-1′-yl)methyl)thiazol-2-yl)acetamide] | 8.4 | 70 | 6 | 9 | –
CC(=O)Nc1ncc(CN2CC3(C[C@@H]2C)OCc2ccccc23)s1 (stereo partly drawn) [Example 59, N-(5-(((5′S)-5′-Methyl-3H-spiro[isobenzofuran-1,3′-pyrrolidin]-1′-yl)methyl)thiazol-2-yl)acetamide] | 3.5 | 94 | 9 | 16 | –
COc1nccc2c1COC21CCCN(Cc2cnc(NC(C)=O)s2)C1 (stereo not drawn) [Example 82, N-(5-((4-Methoxy-3H-spiro[furo[3,4-c]pyridine-1,3′-piperidin]-1′-yl)methyl)thiazol-2-yl)acetamide] | 4.4 | 78 | 1.6 | 126 | –
CC(=O)Nc1ncc(CN2CCCC3(C2)OCc2cnccc23)s1 (stereo not drawn) [Example 68, N-(5-((3H-Spiro[furo[3,4-c]pyridine-1,3′-piperidin]-1′-yl)methyl)thiazol-2-yl)acetamide] | 10.7 | 84 | 6 | 18 | –
CC(=O)Nc1ncc(CN2C[C@@]3(Cc4cc(N5C[C@@H](C)O[C@H](C)C5)ncc4O3)C[C@@H]2C)s1 [Example 40, N-(5-(((2R,5′S)-5-((2R,6R)-2,6-Dimethylmorpholino)-5′-methyl-3H-spiro[furo[2,3-c]pyridine-2,3′-pyrrolidin]-1′-yl)methyl)thiazol-2-yl)acetamide] | 27 | 54 | 1.5 | 14 | –
CC(=O)Nc1ncc(CN2C[C@@]3(Cc4cc(N5CCC5)ncc4O3)C[C@@H]2C)s1 [Example 35, N-(5-(((2R,5′S)-5-(Azetidin-1-yl)-5′-methyl-3H-spiro[furo[2,3-c]pyridine-2,3′-pyrrolidin]-1′-yl)methyl)thiazol-2-yl)acetamide] | 39.5 | 50 | < 1 | 4 | –
COc1cc2c(cn1)[C@@]1(C[C@H](C)N(Cc3cnc(NC(C)=O)s3)C1)OC2 (single isomer, unassigned) [Example 76-b] | 8.9 | 89 | 160 | 38 | –
CC(=O)Nc1ncc(CN2CCCC3(CCCO3)C2)s1 (stereo not drawn) [Example 52, N-(5-((1-Oxa-7-azaspiro[4.5]decan-7-yl)methyl)thiazol-2-yl)acetamide] | 2.6 | 74 | 180 | > 1000 | –
CC(=O)Nc1ncc(CN2CCC3(Cc4cnc(Cl)cc4O3)C2)s1 (stereo not drawn) [Example 8, N-(5-((6-Chloro-3H-spiro[furo[3,2-c]pyridine-2,3′-pyrrolidin]-1′-yl)methyl)thiazol-2-yl)acetamide] | 9.4 | 47 | 74 | 654 | –
CC(=O)Nc1ncc(CN2CCCC3(C2)OCc2ccncc23)s1 (stereo not drawn) [Example 74, N-(5-((1H-Spiro[furo[3,4-c]pyridine-3,3′-piperidin]-1′-yl)methyl)thiazol-2-yl)acetamide] | 36.5 | 75 | 13 | 22.6 | –
CC(=O)Nc1ncc(CN2CCC3(Cc4ccccc4O3)C2)s1 (stereo not drawn) [Example 3, N-(5-((3H-Spiro[benzofuran-2,3′-pyrrolidin]-1′-yl)methyl)thiazol-2-yl)acetamide] | 1.7 | 81 | 330 | 1000 | –

Next, values leading:

efflux ratio at 2 hr (P-gp (MDR1)) | RLM % Qh (%) [1] [%] | IC50 [2] [nM] | IC50 (OGA (S400 O-GLCNAC)) [nM] | efflux ratio at 2 h (P-gp (MDR1)) | Compound
14 | 62 | 1 | 5 | – | CC(=O)Nc1nc(F)c(CN2C[C@@]3(Cc4ncccc4O3)C[C@@H]2C)s1 (single isomer, unassigned) [Example 19-a]
9.3 | 51 | < 1 | 8 | – | CC(=O)Nc1nc(F)c(CN2C[C@@]3(Cc4cc(N5CCOCC5)ncc4O3)C[C@@H]2C)s1 [Example 36, N-(4-Fluoro-5-(((2R,5′S)-5′-methyl-5-morpholino-3H-spiro[furo[2,3-c]pyridine-2,3′-pyrrolidin]-1′-yl)methyl)thiazol-2-yl)acetamide]
17.7 | 55 | < 1 | 3 | – | CNc1cc2c(cn1)O[C@]1(C2)C[C@H](C)N(Cc2sc(NC(C)=O)nc2F)C1 [Example 29, N-(4-Fluoro-5-(((2R,5′S)-5′-methyl-5-(methylamino)-3H-spiro[furo[2,3-c]pyridine-2,3′-pyrrolidin]-1′-yl)methyl)thiazol-2-yl)acetamide]
5.2 | 75 | 1 | 8 | – | CC(=O)Nc1nc(F)c(CN2C[C@@]3(Cc4cc(Cl)ncc4O3)C[C@@H]2C)s1 [Example 10, N-(5-(((2R,5′S)-5-Chloro-5′-methyl-3H-spiro[furo[2,3-c]pyridine-2,3′-pyrrolidin]-1′-yl)methyl)-4-fluorothiazol-2-yl)acetamide]
9.2 | 53 | < 1 | 9 | – | COCCOc1cc2c(cn1)O[C@]1(C2)C[C@H](C)N(Cc2sc(NC(C)=O)nc2F)C1 [Example 47, N-(4-Fluoro-5-(((2R,5′S)-5-(2-methoxyethoxy)-5′-methyl-3H-spiro[furo[2,3-c]pyridine-2,3′-pyrrolidin]-1′-yl)methyl)thiazol-2-yl)acetamide]
2.5 | 16 | 1 | 73 | – | CC(=O)Nc1nc(F)c(CN2C[C@@]3(Cc4cc(=O)[nH]cc4O3)C[C@@H]2C)s1 [Example 49, N-(4-Fluoro-5-(((2R,5′S)-5′-methyl-5-oxo-5,6-dihydro-3H-spiro[furo[2,3-c]pyridine-2,3′-pyrrolidin]-1′-yl)methyl)thiazol-2-yl)acetamide]
22 | 82 | < 1 | 2 | – | COCCN(C)c1cc2c(cn1)O[C@]1(C2)C[C@H](C)N(Cc2sc(NC(C)=O)nc2F)C1 [Example 33, N-(4-Fluoro-5-(((2R,5′S)-5-((2-methoxyethyl)(methyl)amino)-5′-methyl-3H-spiro[furo[2,3-c]pyridine-2,3′-pyrrolidin]-1′-yl)methyl)thiazol-2-yl)acetamide]
– | 89 | – | 24 | 5.4 | COc1cc2c(cn1)[C@@]1(C[C@H](C)N(Cc3sc(NC(C)=O)nc3F)C1)OC2 (single isomer, unassigned) [Example 75-b]
– | 59 | – | 40 | 7.8 | COc1cc2c(cn1)[C@]1(C[C@H](C)N(Cc3sc(NC(C)=O)nc3F)C1)OC2 (single isomer, unassigned) [Example 75-a]
